Results: paper PMC2375353, “Effective treatment of experimental U-87MG human glioblastoma in nude mice with a targeted cytotoxic bombesin analogue, AN-215” (British Journal of Cancer, 2002)
“And” between values parts separate entries of the source, which are not always exact repeats. Equal entries are not always repeated.

Experiments:
[1] = system: BN receptor-positive organs; experiment: GRP-stimulated serum gastrin release; format: in vivo, nude mice; settings: for Effect on GRP-stimulated gastrin release: experiment 1, after i.v. stimulation with GRP(14-27); for GRP(14-27)-evoked serum gastrin level: experiment 1 end, 5 min after i.v. 2 μg GRP(14-27), radioimmunoassay, control 223.0±17.9, mean±s.e.
Method: General toxicity was evaluated on the basis of mortality rate and changes in BW. Toxicity to BN receptor-positive organs was assessed by measuring gastrin release in response to GRP stimulation ([Plonowski et al, 2000]). […] Serum gastrin concentrations were measured by double-antibody radioimmunoassay with a kit provided by ICN Pharmaceuticals Diagnostic Division (Orangeburg, NY, USA). The interassay variation was 10.6%, and the intraassay variation was 6%.

[2] = system: U-87MG human glioblastoma xenografted into nude mice; experiment: Experiment 1: growth of s.c. U-87MG xenografts in nude mice; format: in vivo, human tumour in male athymic nude mice; settings: for Final tumour volume / Final tumour volume, % inhibition / Tumour weight, % inhibition / Tumour doubling time: 150 nmol kg^-1 i.v. days 1, 8, 15, 22; for Final tumour volume / Final tumour volume, % inhibition / Tumour weight, % inhibition: day 29; for Final tumour volume / Tumour doubling time: mean±s.e.; for Final tumour volume: control 3201.5±375.7; for Final tumour volume, % inhibition / Tumour weight, % inhibition: vs control; for Antitumour effect / Tumour doubling time: experiment 1; for Antitumour effect: 150 nmol kg^-1 i.v.; for Tumour doubling time: day 1 to 29, control 4.5±0.2
Method: Human glioblastoma cell line U-87MG was obtained from American Type Culture Collection (Manassas, VA, USA) and cultured as described ([Pinski et al, 1994]). Male athymic (Ncr nu/nu) nude mice, approximately 6-weeks-old on arrival, were obtained from the National Cancer Institute (Frederick Cancer Research and Development Center, Frederick, MD, USA), and housed in laminar air-flow cabinets under pathogen-free conditions with a 12 h light/12 h dark schedule, and fed autoclaved standard chow and water ad libitum. Xenografts were initiated by s.c. injection of 12×10^6 U-87MG cells into the right flanks of five male nude mice. Tumours resulting after 2 weeks were aseptically dissected, mechanically minced, and 3-mm^3 pieces of tumour tissue were transplanted s.c. with a trocar needle. The take rate was 100%. All experiments were performed in accordance with institutional ethical guidelines of animal care and were essentially in agreement with [UKCCCR guidelines (1998)] for the welfare of animals in experimental neoplasia.
Experiment 1 was started when tumours had grown to approximately 40 mm^3 in volume. Animals were randomly divided into three treatment groups: group 1(10 mice), control, which received vehicle solution; group 2 (10 mice), injected with cytotoxic radical AN-201; group 3 (11 mice), given cytotoxic BN analogue AN-215. Cytotoxic compounds were injected through the jugular vein at a dose of 150 nmol kg^−1 of body weight (BW) on days 1, 8, 15 and 22. Tumour volume (length×width×height×0.5236) and BW were measured twice a week. The experiment was terminated on day 29. […] Tumours were excised and weighed. Tumour specimens were snap-frozen and stored at −70°C until extraction of RNA for reverse transcription-polymerase chain reaction (RT–PCR). Tumour volume doubling time was calculated between day 1 and 29 using the formula: […]
as described by [Smolev et al (1977)].
Data are expressed as mean±s.e. Differences between mean values were evaluated by two-tailed Student's t-test, P<0.05 being considered significant.

[3] = design: method as in 2 sources, one per row (each row's own in cited_ref): ref Nagy et al, 1997 ||| ref not printed in the sentence (AN-201: Nagy et al, 1996); settings: cited from earlier work
From the text: Current treatment options for malignant gliomas, including surgery, radiation, and chemotherapy, are of limited effectiveness, and novel therapeutic modalities must be explored. Targeting of antineoplastic agents to cancer cells by linking them to a ligand with high affinity for tumour cells should improve tumour growth inhibition and decrease peripheral toxicity ([Schally and Nagy, 1999]). The presence of high affinity receptors for bombesin (BN)-like peptides on a wide variety of tumours prompted us to employ some of our powerful BN/gastrin releasing peptide (GRP) antagonists as carrier mole ... || Recently, we developed a series of targeted cytotoxic conjugates based on analogues of peptide hormones such as luteinizing hormone-releasing hormone(LH-RH), somatostatin and BN/GRP, for which high affinity receptors are expressed on a variety of tumours ([Schally and Nagy, 1999]; [Nagy and Schally, 2001]).

[4] = cited from earlier work; for BW change: accompanying WBC decrease, nude mice bearing PC-3; for Reduction in WBC count: after the final injection, nude mice bearing PC-3 human prostate cancers
Method: In our previous study ([Plonowski et al, 2000]) we reported that after the final injection of AN-215, AN-201 or the mixture of AN-201 and […] there was an approximate 50% reduction in WBC count in nude mice bearing PC-3 human prostate cancers. […] In the present study no measurements of WBC were carried out. Instead, the assessment of toxicity was based on changes in BW and mortality which indicated, in both experiments, that targeted cytotoxic BN analogue AN-215 is not toxic (Table 2). In experiment 1, two of 10 animals (20%) ...

| Molecule | Damage to gastrointestinal cells ([1]; GRP-stimulated gastric secretion, this study and also ref Plonowski et al, 2000) | Effect on GRP-stimulated gastrin release [1] | GRP(14-27)-evoked serum gastrin level [1] | Final tumour volume [2] | Final tumour volume, % inhibition [2] | Tumour weight, % inhibition [2] | Antitumour effect [2] | Tumour doubling time [2] | Antiproliferative effect ([3]; ref Nagy et al, 1997) | BW change ([4]; ref Plonowski et al, 2000) | Reduction in WBC count ([4]; ref Plonowski et al, 2000) | Tolerance with carboxylesterase inhibited ([4]; nude mice, ref Nagy et al, 2000, Plonowski et al) | Efficacy with suppressed esterase activity ([4]; nude mice, ref Plonowski et al, 2000) | Potency relative to DOX (fold) ([3]; in vitro, ref not printed in the sentence (AN-201: Nagy et al, 1996)) |
| --- | --- | --- | --- | --- | --- | --- | --- | --- | --- | --- | --- | --- | --- | --- |
| Gln-Trp-Ala-Val-Gly-His-Leu-ψ(CH2-NH)-Leu-NH2 [AN-215] | no specific damage to the gastrointestinal cells | Neither AN-215 nor AN-201 affected GRP-stimulated gastrin release | 257.9 ± 11.6 pg/mL | 971.5±227.9 mm^3 | 69.6% | 64.6% | strong tumour growth inhibition | 8.18±1.8 days and 8.2±1.8 days and 8.2±1.8^c days | retains the antiproliferative effect of its cytotoxic moiety | transient decrease in BW | ~50% | significantly higher tolerance | highly efficacious | – |
| COc1cccc2c1C(=O)c1c(O)c3c(c(O)c1C2=O)C[C@@](O)(C(=O)CO)C[C@@H]3O[C@H]1C[C@H](N2C=CCC2)[C@H](O)[C@H](C)O1 [AN-201, 2-pyrrolino-doxorubicin] | – | Neither AN-215 nor AN-201 affected GRP-stimulated gastrin release | 251.5 ± 22.1 pg/mL | 2353.7±506.7 mm^3 | 26% | 13.2% | ineffective | 5.9 ± 1.4 days | – | transient decrease in BW | ~50% | – | – | 1000 times |
